Molecular target: T1, fructokinase (ketohexokinase, KHK) (Homo sapiens, UniProt P50053)
T1 sequence (P50053 1-298): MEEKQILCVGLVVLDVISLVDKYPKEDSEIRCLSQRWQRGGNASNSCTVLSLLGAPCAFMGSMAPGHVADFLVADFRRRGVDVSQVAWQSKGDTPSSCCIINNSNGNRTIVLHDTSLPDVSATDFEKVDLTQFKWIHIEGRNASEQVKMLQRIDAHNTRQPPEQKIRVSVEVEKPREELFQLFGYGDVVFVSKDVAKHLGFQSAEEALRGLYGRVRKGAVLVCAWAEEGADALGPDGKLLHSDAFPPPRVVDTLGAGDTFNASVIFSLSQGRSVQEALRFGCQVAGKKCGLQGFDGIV
Test: fructose-dependent ATP depletion assay in HK-2 (human proximal tubule) cell lysates, KHK-deficient HK-2 cells as background control
Type: biochemical

## O=c1cc(-c2ccc(O)c(O)c2)oc2cc(O)cc(O)c12 [luteolin]
  IC50: 11.2 µM

Source: paper PMC5316807, “Protective role of fructokinase blockade in the pathogenesis of acute kidney injury in mice” (Nature Communications, 2017)
